Literature values as cited in US7368585B2, “Synthetic techniques and intermediates for polyhydroxy dienyl lactones and mimics thereof” (The Trustees Of The University Of Pennsylvania, priority 1996, dated 2008).

What was measured:
[1] = test system: graft-vs.-host splenomegaly response; conditions: in vivo
[2] = test system: murine splenocytes; conditions: in vitro
[3] = test system: cell development at the M phase; conditions: by binding and stabilizing mitotic spindle microtubules
[4] = test system: murine splenocytes; conditions: in vitro; remark: listed apart in the source
[5] = test system: mitotic spindle microtubules; conditions: compared with taxol
[6] = test system: two-way mixed-lymphocyte reaction; conditions: in vitro

Compound: C=C/C=C\[C@H](C)[C@H](OC(N)=O)[C@@H](C)[C@H](O)[C@@H](C)C/C(C)=C\[C@H](C)[C@@H](O)[C@@H](C)/C=C\[C@@H](O)C[C@@H]1OC(=O)[C@H](C)[C@@H](O)[C@H]1C [(+)-discodermolide]
- potency in graft-vs.-host splenomegaly response relative to cyclosporin A and FK506 ([1]; F1 recipient mice): intermediate between those of cyclosporin A and FK506
- suppression of graft-vs.-host splenomegaly response ([1]; injection of parental splenocytes into F1 recipient mice): suppresses
- suppression of concanavalin A-induced mitogenesis of murine splenocytes [2]: suppresses
- cell cycle effect [3]: arrests cell development at the M phase
- associated cytotoxicity [4]: no associated cytotoxicity
- microtubule binding affinity relative to taxol [5]: much higher
- suppression of the two-way mixed-lymphocyte reaction [6]: suppresses
